Article PMC3257078, “Predicting Antitumor Activity of Peptides by Consensus of Regression Models Trained on a Small Data Sample” (International Journal of Molecular Sciences, 2011)
Like-named read-outs stand apart in the source and are kept apart here.

What was measured:
[1] = system: HeLa (cervical carcinoma); details: c = 10^-4 M, cited from earlier work
Text: Table 3 Growth inhibition effects of OGF-related peptides. | column: PG(%) ^a / HeLa

[2] = system: MCF-7 (breast carcinoma); details: c = 10^-4 M, cited from earlier work
Text: Table 3 Growth inhibition effects of OGF-related peptides. | column: PG(%) ^a / MCF-7

[3] = system: SW 620 (colon carcinoma); details: c = 10^-4 M, cited from earlier work
Text: Table 3 Growth inhibition effects of OGF-related peptides. | column: PG(%) ^a / SW620

[4] = system: MCF-7 (breast carcinoma); test: Proliferation assay (MTT), MCF-7 cells; format: cell-based; details: c = 10^-4 M, 72 h incubation, absorbance 570 nm, quadruplicate in three individual experiments
Text: (§1) Peptides 10, 12–14 as well as trisulfoxide derivative 15 were screened for possible antiproliferative effects on three cell lines: SW 620 (colon carcinoma), MCF-7 (breast carcinoma) and HeLa (cervical carcinoma), according to the previously published procedure. Table 3 summarizes activities found for tested peptides, expressed as percentage of growth (PG) of three cell lines, together with values for OGF and three OGF-related peptides proposed by the SVM radial basis function kernel (RBF). […] Therefore, the approach presented here managed to select peptides with improved biological activities from virtual library.
(§2) The biological potential of prepared compounds has been tested in the Laboratory for experimental therapy (Ruđer Bošković Institute) following the previously published procedure. Briefly, MCF-7, SW 620 and HeLa cells were cultured as monolayers and maintained in Dulbecco’s modified Eagle medium (DMEM), supplemented with 10% fetal bovine serum (FBS), 2mM L-glutamine, 100 U/mL penicillin and 100 μg/mL streptomycin in a humidified atmosphere with 5% CO2 at 37 °C. The panel cell lines were inoculated onto a series of standard 96-well microtiter plates on day 0, at 1 × 10^4 to 3 × 10^4 cells/mL, depending on the doubling times of specific cell line. Test agents were then added in five, 10-fold dilutions (10^−8 to 10^−4 M) and incubated for a further 72 hours. Working dilutions were freshly prepared on the day of testing. The solvent was also tested for eventual inhibitory activity by adjusting its concentration to be the same as in working concentrations. After 72 hours of incubation the cell growth rate was evaluated by performing the MTT assay. For this purpose the substance treated medium was discarded and MTT was added to each well at a concentration of 20 μg/40 μL. After four hours of incubation the precipitates were dissolved in 160 μL of dimethylsulphoxide (DMSO). The absorbance that is directly proportional to the number of living, metabolically active cells was measured on a microplate reader at 570 nm. Each test point was performed in quadruplicate in three individual experiments.

[5] = system: HeLa (cervical carcinoma); test: Proliferation assay (MTT), HeLa cells; format: cell-based; details: c = 10^-4 M, 72 h incubation, absorbance 570 nm, quadruplicate in three individual experiments
Text: as §1, §2

[6] = system: SW 620 (colon carcinoma); test: Proliferation assay (MTT), SW 620 cells; format: cell-based; details: c = 10^-4 M, 72 h incubation, absorbance 570 nm, quadruplicate in three individual experiments
Text: as §1, §2

[7] = Oxidation of Met residues to sulfoxide during acid Boc deprotection; format: physicochemical; details: cold TFA-H2O (9:1), ice bath, 5 min, full scan MS: only traces of 11 (m/z 750), oxidized forms m/z 766, 782, 798
Protocol: Synthesis of methionine rich peptides 10–14 was based on the 2 + 2 and 2 + 3 coupling between Boc-protected dipeptides 1–4 and H-Met-Met-OH or H-Met-Met-Met-OH (Scheme 1). Different methods of peptide bond formation were tested; finally peptides 5–7 were obtained by the DCC/HOSu method, activation with HATU yielded Ada-containing pentapeptide 8, while pentapeptide 9 was obtained by the mixed anhydride method (details in the Experimental section). Finally, deprotection of the Boc group was performed by acid hydrolysis and extra precautions were taken due to the known susceptibility of methionine residue toward acid-promoted oxidation to sulfoxide. Therefore, deprotection step was performed in ice bath, crude product was immediately purified by the HPLC and residual acid removed by passing through the short C18 column. […] During the purification procedure, only oxidized product 15 was isolated. All prepared compounds were characterized by NMR spectroscopy and deprotected compounds 10 and 12–15 additionally by tandem mass spectrometry and HRMS. The main feature of MS/MS spectra of the molecular [M + H]^+ ions of all peptides is high abundance of Y” and B-type fragment ions (Figure S1, Supplementary Information).
Boc-protected peptides 5–9 were treated with cold TFA-H2O (9:1) mixture in ice bath for 5 min. […]

| Substance | PG(%) MCF-7 (percentage of growth) [4] [%] | PG(%) HeLa (percentage of growth) [5] [%] | PG(%) SW620 (percentage of growth) [6] [%] | PG(%) HeLa (percentage of growth) ([1]; training set peptides) [%] | PG(%) MCF-7 (percentage of growth) ([2]; training set peptides) [%] | PG(%) SW620 (percentage of growth) ([3]; training set peptides) [%] | also measured |
| --- | --- | --- | --- | --- | --- | --- | --- |
| H-Phe-Ada-Gly-Phe-Met-OH |  |  |  |  |  |  | PG(%) HeLa (percentage of growth) [1]: 49%; PG(%) MCF-7 (percentage of growth) [2]: 39%; PG(%) SW620 (percentage of growth) [3]: 35% |
| H-Phe-Ada-Gly-Phe-Phe-OH |  |  |  |  |  |  | PG(%) HeLa (percentage of growth) [1]: 23%; PG(%) MCF-7 (percentage of growth) [2]: 41%; PG(%) SW620 (percentage of growth) [3]: 39% |
| H-Phe-Ada-Met(O)-Met(O)-Met(O)-OH [Compound 15] | 82 | 64 | 77 |  |  |  |  |
| H-Phe-Ada-Met-Met-Met-OH [Compound 11, Ada-containing pentapeptide, only traces seen; oxidized to 15 during deprotection] |  |  |  |  |  |  | Susceptibility of Met residues to oxidation (sulfoxide formation) [7]: extreme susceptibility to oxidation |
| H-Phe-Ala-Met-Met-Met-OH [Compound 10] | 74 | 88 | 100 |  |  |  |  |
| H-Phe-Ala-Met-Met-OH [Compound 13] | 68 | 71 | 86 |  |  |  |  |
| H-Phe-Gly-Met-Met-Met-OH [Compound 12] | 86 | 86 | 95 |  |  |  |  |
| H-Tyr-(R)-Ada-Gly-OH |  |  |  | 89 | 100 | 87 |  |
| H-Tyr-(R)-Ada-OH |  |  |  | 97 | 99 | 88 |  |
| H-Tyr-(S)-Ada-Gly-OH |  |  |  | 90 | 100 | 85 |  |
| H-Tyr-(S)-Ada-OH |  |  |  | 92 | 100 | 72 |  |
| H-Tyr-Ada-Gly-Phe-Met-OH |  |  |  | 85 | 100 | 85 |  |
| H-Tyr-Ada-Gly-Phe-Phe-OH |  |  |  |  |  |  | PG(%) HeLa (percentage of growth) [1]: 71%; PG(%) MCF-7 (percentage of growth) [2]: 81%; PG(%) SW620 (percentage of growth) [3]: 38% |
| H-Tyr-Ala-Met-Met-Met-OH [Compound 14] | 71 | 91 | 97 |  |  |  |  |
| H-Tyr-Gly-Gly-Phe-Met-OH [OGF, native opioid growth factor (OGF), Met-enkephalin] | 92 | 88 | 85 |  |  |  |  |
